# From the supplement of paper PMC10307832
# Legend:
# Experiment in all cases: relative viability (nuclei count vs DMSO), 5 days (fraction); higher = more cells survive
# Tipifarnib + Pictilisib = compound: Cn1cncc1[C@@](N)(c1ccc(Cl)cc1)c1ccc2c(c1)c(-c1cccc(Cl)c1)cc(=O)n2C [Tipifarnib] + CS(=O)(=O)N1CCN(Cc2cc3nc(-c4cccc5[nH]ncc45)nc(N4CCOCC4)c3s2)CC1 [Pictilisib] (partner 1 µM)
# Summary of the method: (§1)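 Values are medians from duplicate plates. Each reflects relative viability, defined as the nuclei count of treated wells over that of vehicle wells. Lung cancer cell lines in 1536-well plates were pin-tool dosed one day after seeding with one drug alone or with a fixed anchor-drug dose plus five library-drug doses (not always all listed) in √10 steps, then fixed, stained and imaged at 4× after 5 days.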
# Tipifarnib + Decitabine = compound: Cn1cncc1[C@@](N)(c1ccc(Cl)cc1)c1ccc2c(c1)c(-c1cccc(Cl)c1)cc(=O)n2C [Tipifarnib] + Nc1ncn([C@H]2C[C@H](O)[C@@H](CO)O2)c(=O)n1 [Decitabine] (partner 2 µM)
# Summary of the method: as §1
# Tipifarnib + Crizotinib = compound: Cn1cncc1[C@@](N)(c1ccc(Cl)cc1)c1ccc2c(c1)c(-c1cccc(Cl)c1)cc(=O)n2C [Tipifarnib] + C[C@@H](Oc1cc(-c2cnn(C3CCNCC3)c2)cnc1N)c1c(Cl)ccc(F)c1Cl [Crizotinib] (partner 1 µM)
# Summary of the method: as §1
# Tipifarnib + Alpelisib = compound: Cn1cncc1[C@@](N)(c1ccc(Cl)cc1)c1ccc2c(c1)c(-c1cccc(Cl)c1)cc(=O)n2C [Tipifarnib] + Cc1nc(NC(=O)N2CCC[C@H]2C(N)=O)sc1-c1ccnc(C(C)(C)C(F)(F)F)c1 [Alpelisib] (partner 2 µM)
# Summary of the method: as §1
# Tipifarnib + Phenformin = compound: Cn1cncc1[C@@](N)(c1ccc(Cl)cc1)c1ccc2c(c1)c(-c1cccc(Cl)c1)cc(=O)n2C [Tipifarnib] + N=C(N)NC(=N)NCCc1ccccc1 [Phenformin] (partner 250 µM)
# Summary of the method: as §1
# Tipifarnib + Lapatinib = compound: Cn1cncc1[C@@](N)(c1ccc(Cl)cc1)c1ccc2c(c1)c(-c1cccc(Cl)c1)cc(=O)n2C [Tipifarnib] + CS(=O)(=O)CCNCc1ccc(-c2ccc3ncnc(Nc4ccc(OCc5cccc(F)c5)c(Cl)c4)c3c2)o1 [Lapatinib] (partner 2 µM)
# Summary of the method: as §1
# Tipifarnib + Olaparib = compound: Cn1cncc1[C@@](N)(c1ccc(Cl)cc1)c1ccc2c(c1)c(-c1cccc(Cl)c1)cc(=O)n2C [Tipifarnib] + O=C(c1cc(Cc2n[nH]c(=O)c3ccccc23)ccc1F)N1CCN(C(=O)C2CC2)CC1 [Olaparib] (partner 8 µM)
# Summary of the method: as §1
# Tipifarnib + Navitoclax = compound: Cn1cncc1[C@@](N)(c1ccc(Cl)cc1)c1ccc2c(c1)c(-c1cccc(Cl)c1)cc(=O)n2C [Tipifarnib] + CC1(C)CCC(c2ccc(Cl)cc2)=C(CN2CCN(c3ccc(C(=O)NS(=O)(=O)c4ccc(N[C@H](CCN5CCOCC5)CSc5ccccc5)c(S(=O)(=O)C(F)(F)F)c4)cc3)CC2)C1 [Navitoclax] (partner 0.5 µM)
# Summary of the method: as §1
# Tipifarnib + Foretinib = compound: Cn1cncc1[C@@](N)(c1ccc(Cl)cc1)c1ccc2c(c1)c(-c1cccc(Cl)c1)cc(=O)n2C [Tipifarnib] + COc1cc2c(Oc3ccc(NC(=O)C4(C(=O)Nc5ccc(F)cc5)CC4)cc3F)ccnc2cc1OCCCN1CCOCC1 [Foretinib] (partner 0.25 µM)
# Summary of the method: as §1
# Tipifarnib + Linsitinib = compound: Cn1cncc1[C@@](N)(c1ccc(Cl)cc1)c1ccc2c(c1)c(-c1cccc(Cl)c1)cc(=O)n2C [Tipifarnib] + C[C@]1(O)C[C@@H](c2nc(-c3ccc4ccc(-c5ccccc5)nc4c3)c3c(N)nccn32)C1 [Linsitinib] (partner 1 µM)
# Summary of the method: as §1
# Tipifarnib = compound: Cn1cncc1[C@@](N)(c1ccc(Cl)cc1)c1ccc2c(c1)c(-c1cccc(Cl)c1)cc(=O)n2C [Tipifarnib]
# Summary of the method: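 Five library-drug doses spaced by √10 were pinned onto vehicle-anchored 1536-well plates of lung cancer cell lines that had been kept overnight at 37 °C. Cells went 5 days without medium change, then were fixed, permeabilised and Hoechst-stained together, imaged at 4× and counted by MetaXpress. Viability is the ratio of treated-well to vehicle-well nuclei, taken as a median over plates. Plates required control CV below 25% and at least one doubling.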
# Tipifarnib + Bortezomib = compound: Cn1cncc1[C@@](N)(c1ccc(Cl)cc1)c1ccc2c(c1)c(-c1cccc(Cl)c1)cc(=O)n2C [Tipifarnib] + CC(C)C[C@H](NC(=O)[C@H](Cc1ccccc1)NC(=O)c1cnccn1)B(O)O [Bortezomib] (partner 0.002 µM)
# Summary of the method: as §1
cell line,measurement,setting,value
A549,relative viability,Tipifarnib + Pictilisib; first compound 0.01 µM,0.53
same,relative viability,Tipifarnib + Pictilisib; first compound 0.03162 µM,0.44
same,relative viability,Tipifarnib + Pictilisib; first compound 0.1 µM,0.387
same,relative viability,Tipifarnib + Pictilisib; first compound 0.3162 µM,0.256
same,relative viability,Tipifarnib + Pictilisib; first compound 1 µM,0.22
same,relative viability,Tipifarnib + Decitabine; first compound 0.01 µM,0.243
same,relative viability,Tipifarnib + Decitabine; first compound 0.03162 µM,0.32
same,relative viability,Tipifarnib + Decitabine; first compound 0.1 µM,0.143
same,relative viability,Tipifarnib + Decitabine; first compound 0.3162 µM,0.124
same,relative viability,Tipifarnib + Decitabine; first compound 1 µM,0.0674
same,relative viability,Tipifarnib + Crizotinib; first compound 0.01 µM,0.499
same,relative viability,Tipifarnib + Crizotinib; first compound 0.03162 µM,0.313
same,relative viability,Tipifarnib + Crizotinib; first compound 0.1 µM,0.238
same,relative viability,Tipifarnib + Crizotinib; first compound 0.3162 µM,0.155
same,relative viability,Tipifarnib + Crizotinib; first compound 1 µM,0.121
same,relative viability,Tipifarnib + Alpelisib; first compound 0.01 µM,0.759
same,relative viability,Tipifarnib + Alpelisib; first compound 0.03162 µM,0.649
same,relative viability,Tipifarnib + Alpelisib; first compound 0.1 µM,0.398
same,relative viability,Tipifarnib + Alpelisib; first compound 0.3162 µM,0.346
same,relative viability,Tipifarnib + Alpelisib; first compound 1 µM,0.283
same,relative viability,Tipifarnib + Phenformin; first compound 0.01 µM,0.181
same,relative viability,Tipifarnib + Phenformin; first compound 0.03162 µM,0.116
same,relative viability,Tipifarnib + Phenformin; first compound 0.1 µM,0.108
same,relative viability,Tipifarnib + Phenformin; first compound 0.3162 µM,0.0861
same,relative viability,Tipifarnib + Phenformin; first compound 1 µM,0.0622
same,relative viability,Tipifarnib + Lapatinib; first compound 0.01 µM,1.09
same,relative viability,Tipifarnib + Lapatinib; first compound 0.03162 µM,0.793
same,relative viability,Tipifarnib + Lapatinib; first compound 0.1 µM,0.643
same,relative viability,Tipifarnib + Lapatinib; first compound 0.3162 µM,0.439
same,relative viability,Tipifarnib + Lapatinib; first compound 1 µM,0.302
same,relative viability,Tipifarnib + Olaparib; first compound 0.01 µM,0.265
same,relative viability,Tipifarnib + Olaparib; first compound 0.03162 µM,0.276
same,relative viability,Tipifarnib + Olaparib; first compound 0.1 µM,0.245
same,relative viability,Tipifarnib + Olaparib; first compound 0.3162 µM,0.219
same,relative viability,Tipifarnib + Olaparib; first compound 1 µM,0.109
same,relative viability,Tipifarnib + Navitoclax; first compound 0.01 µM,1.18
same,relative viability,Tipifarnib + Navitoclax; first compound 0.03162 µM,0.981
same,relative viability,Tipifarnib + Navitoclax; first compound 0.1 µM,0.678
same,relative viability,Tipifarnib + Navitoclax; first compound 0.3162 µM,0.531
same,relative viability,Tipifarnib + Navitoclax; first compound 1 µM,0.341
same,relative viability,Tipifarnib + Foretinib; first compound 0.01 µM,1.03
same,relative viability,Tipifarnib + Foretinib; first compound 0.03162 µM,0.843
same,relative viability,Tipifarnib + Foretinib; first compound 0.1 µM,0.386
same,relative viability,Tipifarnib + Foretinib; first compound 0.3162 µM,0.296
same,relative viability,Tipifarnib + Foretinib; first compound 1 µM,0.366
same,relative viability,Tipifarnib + Linsitinib; first compound 0.01 µM,0.707
same,relative viability,Tipifarnib + Linsitinib; first compound 0.03162 µM,0.596
same,relative viability,Tipifarnib + Linsitinib; first compound 0.1 µM,0.49
same,relative viability,Tipifarnib + Linsitinib; first compound 0.3162 µM,0.325
same,relative viability,Tipifarnib + Linsitinib; first compound 1 µM,0.233
same,relative viability,Tipifarnib; 0.01 µM,1.01
same,relative viability,Tipifarnib; 0.03162 µM,0.853
same,relative viability,Tipifarnib; 0.1 µM,0.563
same,relative viability,Tipifarnib; 0.3162 µM,0.417
same,relative viability,Tipifarnib; 1 µM,0.251
EBC-1,relative viability,Tipifarnib + Pictilisib; first compound 0.01 µM,0.313
same,relative viability,Tipifarnib + Pictilisib; first compound 0.03162 µM,0.199
same,relative viability,Tipifarnib + Pictilisib; first compound 0.1 µM,0.198
same,relative viability,Tipifarnib + Pictilisib; first compound 0.3162 µM,0.183
same,relative viability,Tipifarnib + Pictilisib; first compound 1 µM,0.242
same,relative viability,Tipifarnib + Crizotinib; first compound 0.01 µM,0.195
same,relative viability,Tipifarnib + Crizotinib; first compound 0.03162 µM,0.198
same,relative viability,Tipifarnib + Crizotinib; first compound 0.1 µM,0.215
same,relative viability,Tipifarnib + Crizotinib; first compound 0.3162 µM,0.206
same,relative viability,Tipifarnib + Crizotinib; first compound 1 µM,0.172
same,relative viability,Tipifarnib + Alpelisib; first compound 0.01 µM,0.697
same,relative viability,Tipifarnib + Alpelisib; first compound 0.03162 µM,0.371
same,relative viability,Tipifarnib + Alpelisib; first compound 0.1 µM,0.36
same,relative viability,Tipifarnib + Alpelisib; first compound 0.3162 µM,0.331
same,relative viability,Tipifarnib + Alpelisib; first compound 1 µM,0.274
same,relative viability,Tipifarnib + Lapatinib; first compound 0.01 µM,0.199
same,relative viability,Tipifarnib + Lapatinib; first compound 0.03162 µM,0.214
same,relative viability,Tipifarnib + Lapatinib; first compound 0.1 µM,0.2
same,relative viability,Tipifarnib + Lapatinib; first compound 0.3162 µM,0.188
same,relative viability,Tipifarnib + Lapatinib; first compound 1 µM,0.215
same,relative viability,Tipifarnib + Bortezomib; first compound 0.01 µM,0.46
same,relative viability,Tipifarnib + Bortezomib; first compound 0.03162 µM,0.356
same,relative viability,Tipifarnib + Bortezomib; first compound 0.1 µM,0.359
same,relative viability,Tipifarnib + Bortezomib; first compound 0.3162 µM,0.295
same,relative viability,Tipifarnib + Bortezomib; first compound 1 µM,0.309
same,relative viability,Tipifarnib + Olaparib; first compound 0.01 µM,0.648
same,relative viability,Tipifarnib + Olaparib; first compound 0.03162 µM,0.411
same,relative viability,Tipifarnib + Olaparib; first compound 0.1 µM,0.332
same,relative viability,Tipifarnib + Olaparib; first compound 0.3162 µM,0.228
same,relative viability,Tipifarnib + Olaparib; first compound 1 µM,0.229
same,relative viability,Tipifarnib + Navitoclax; first compound 0.01 µM,0.27
same,relative viability,Tipifarnib + Navitoclax; first compound 0.03162 µM,0.187
same,relative viability,Tipifarnib + Navitoclax; first compound 0.1 µM,0.207
same,relative viability,Tipifarnib + Navitoclax; first compound 0.3162 µM,0.143
same,relative viability,Tipifarnib + Navitoclax; first compound 1 µM,0.186
same,relative viability,Tipifarnib + Foretinib; first compound 0.01 µM,0.103
same,relative viability,Tipifarnib + Foretinib; first compound 0.03162 µM,0.0929
same,relative viability,Tipifarnib + Foretinib; first compound 0.1 µM,0.0996
same,relative viability,Tipifarnib + Foretinib; first compound 0.3162 µM,0.113
same,relative viability,Tipifarnib + Foretinib; first compound 1 µM,0.0971
same,relative viability,Tipifarnib + Linsitinib; first compound 0.01 µM,0.854
same,relative viability,Tipifarnib + Linsitinib; first compound 0.03162 µM,0.288
same,relative viability,Tipifarnib + Linsitinib; first compound 0.1 µM,0.332
same,relative viability,Tipifarnib + Linsitinib; first compound 0.3162 µM,0.265
same,relative viability,Tipifarnib + Linsitinib; first compound 1 µM,0.212
same,relative viability,Tipifarnib; 0.01 µM,0.837
same,relative viability,Tipifarnib; 0.03162 µM,0.383
same,relative viability,Tipifarnib; 0.1 µM,0.353
same,relative viability,Tipifarnib; 0.3162 µM,0.257
same,relative viability,Tipifarnib; 1 µM,0.259
